Columns and labels:
growth plate = system: growth plate
Excerpt: The proteasome inhibitors (PIs), including bortezomib (Velcade™, PS-341), belong to another novel and promising group of CT that has past phase I clinical trials (Blaney, Bernstein et al. 2004) and are now under phase II clinical trials in pediatric cancers. However, secondary effects on normal bystander tissues of primary life saving modalities are so far unknown.

male Wistar rats = details: cited from earlier work
[1] = system: fetal rat metatarsal bones; assay: Longitudinal growth of cultured fetal rat metatarsal bones; type: cell-based
Method: (§1) The three middle metatarsal bone rudiments were dissected out from the paws of 20-day-old embryos (E20) (De Luca, Barnes et al. 2001). After dissection, bones were transferred to 24-well plates, one bone per well and cultured in 0.5 ml phenol-red MEM medium supplemented with 0.2% endotoxin-free fraction BSA, […] β-glycerophosphate, 0.05 mg/ml ascorbic acid and 100 μg/ml penicillin/streptomycin at 37° C. under 5% CO2 in humidified atmosphere. Medium was changed every 2-3 days. Images were captured at days 0, 2, 5, 7, 9 and 12 of culture, using a Hamamatsu C4742-95 digital camera mounted on a Nikon SMZ-U microscope. The Image-Pro plus™ (Media Cybernetics, USA) software was used to measure longitudinal growth. Metatarsal bone growth is expressed as a percentage of the length at the day of dissection (regarded as day 0). Treatment with CT (bortezomib), dexamethasone and/or HNG (S14G) was started 2-4 hours after dissection. All isolated bones were pooled and then randomly divided into the different treatment groups (4 to 6 bones per group). Each experiment was repeated at least 3 times.
The data shown in FIG. 2A indicates novel growth promoting/protective effects of humanin analog HNG (S14G) on longitudinal bone growth in cultured fetal rat metatarsal bones. […] Briefly, fetal rat metatarsal bones were pre-treated with different concentrations (mentioned in the figure) of HNG (S14G), 30 min prior to addition of Dexa. […] (n=4-6 bones/group)
CT (bortezomib) is a cytotoxic drug known to cause critical alterations in cells/tissues and disturb the cellular homeostasis. To test the effect of CT (bortezomib) on chondocytes and longitudinal bone growth, the established in vitro model of fetal rat metatarsal bones was used. These bones were collected as described in material and methods, cultured and treated with different concentrations of CT (bortezomib) under sterile conditions for up to 12 days. […] Apoptosis was analyzed in whole growth plate sections of 12-day cultured rat metatarsal bones (perichondrium excluded) by applying the TUNEL technique to detect DNA fragmentation.
In an attempt to block and prevent the negative effects on growth after CT (bortezomib)-treatment, recently discovered humanin analog HNG (S14G) was tested in vitro in fetal rat metatarsal bones.

FVB mice = assay: Dexa-induced growth retardation in FVB mice (tibia length, nose to anus length); type: in vivo; details: Dexa 20 μg/mice/day s.c.
Method: Four weeks old female mice FVB strain were obtained from Charles-River, Germany. The mice were kept in animal facility under a 12-h light, 12-h dark schedule with water ad libitum. After an adaptation period, mice were injected with Dexa dissolved in saline (20 μg/mice) subcutaneously in the neck every day for 1 week (short-term). Whereas, HNG (S14G) dissolved in saline (1 μg/mice) was injected intraperitoneally, 45 minutes prior to Dexa injection. The vehicle group received saline only. After one week of treatment/injections, animals were sacrificed and the back legs (femur and tibia) were collected. The skin and muscle from the tibia was removed and final length of tibia was measured by using electronic digital caliper as reported previously (Zaman, Menendez-Benito et al. 2007).
In another study, four weeks old female mice FVB strain (Charles-river, Germany) were injected with Dexa dissolved in saline (20 μg/mice) subcutaneously in the neck every day for four week (long-term). Whereas, HNG (S14G) dissolved in saline (1 μg/mice) was injected intraperitoneally, 45 minutes prior to Dexa injection. The vehicle group received saline only. The total body length (nose to anus) was measured (centimeters, cm) manually (blinded, the cadges were coded on the day of measurment), every week. After 4 weeks of treatment, animals were sacrificed by inhalation of CO2, tissue samples (both left and right leg) were collected for subsequent analysis.
HNG injections were given […] prior to Dexa injections. […] After this, we next asked whether HNG (S14G) has any protective effects on bone growth after long-term treatment with Dexa (FIG. 3A). To investigate this, we treated mice for 4 weeks (group 2) with Dexa (20 μg/mice/day) and HNG (1 μg/mice/day). […] In FIG. 3B, total growth of the animals, nose to anus length (cm, manually) was analyzed in vehicle, Dexa, HNG (S14G) and Dexa/HNG (S14G) treated animals after four weeks of injections. **p<0.01 by 1-way ANOVA analyses, n=9-10/animals/group).

growth plate cartilage = assay: Growth plate histology, resting and proliferating chondrocyte zone (R+P); type: in vivo, mice; details: Dexa alone, four weeks
Method: Four weeks old mice (female, FVB) were injected with Dexa dissolved in saline ([…]) subcutaneously in the neck every day for four week. Whereas, HNG (S14G) dissolved in saline (1 μg/mice) was injected intra-peritoneally, 45 minutes prior to the Dexa injection for four weeks, for details see materials and methods. The femur and tibia bones were dissected out and fixed in 4% formalin for 24 hrs, followed by decalcification in 10% EDTA and embedded in paraffin blocks. Five-micrometer-thick sections were prepared from these paraffin blocks. The sections were prepared from the tibial growth plate and stained with Van Gieson. Digital images of stained sections were collected using a Nikon Eclipse E800 microscope (Nikon Corp., Tokyo, Japan) equipped with an Olympus DP70 digital camera (Olympus Sverige AB, Solna, Sweden).
Since a positive effect of HNG (S14G) on bone growth was identified, different zones of chondrocytes were analyzed (resting, proliferative and hypertrophic) in growth plate cartilage, to identify visible changes in these zones. […] These micropgraphas also explain the longitudinal bone growth promoting effects by HNG (S14G) alone or in combination with Dexa.

[2] = system: apoptosis inducing factor (AIF) and BAX; assay: Western immunoblotting of pro-apoptotic proteins in C5.18 chondrocytic cell line; type: cell-based, rat; details: 1000 nM bortezomib, 6hrs
Method: Western immunoblotting to study protein expression was performed in the rat C5.18 chondrocytic cell line after treatment with 1000 nM CT (bortezomib) or 100 nM humanin analog HNG (S14G)/1000 nM CT (bortezomib (Btz)) for 6hrs. […] By adding humanin analog HNG (S14G), the up-regulation and activation of the two pro-apoptotic proteins were suppressed. […] As an internal control the house-keeping gene, GAPDH (35 kDa) was used. The experiment was repeated twice.

[3] = system: neuroblastoma (SK-N-BE(2)) tumor xenografts; assay: Doubling time of tumors in neuroblastoma xenografts; type: in vivo, human; details: bortezomib 0.8 mg/kg i.v. days 1, 4, 8, 11; p<0.05 vs vehicle
[4] = system: growth plate chondrocytes; assay: TUNEL chondrocyte apoptosis in growth plate sections of C57B and NMRI mice; type: in vivo; details: bortezomib 1 mg/kg i.p.; day 13 (48 hrs post treatment); each strain, p<0.001 vs vehicle
Method: (§2) Normal 5-week old male C57B and NMRI (B&K Universal, Sollentuna, Sweden) mice were housed one per cage in our animal care facility under a 12-h light, 12-h dark schedule with water ad libitum. After an adaptation period, each strain of mice were divided into two groups according to their body weight and were weight-matched into pairs to either receive 1 cycle intra peritoneal (i.p) injections of CT (bortezomib; Millennium Pharmaceuticals, USA, 1 mg/kg of body weight; 2 injections/week, 2 weeks treatment) or saline (vehicle). Body weight, food and general physical status was recorded daily during the first 20 days, and each vehicle-treated mouse was pair-fed to corresponding weight-matched CT (bortezomib)-treated mice. […] X-ray analyses where performed approximately every second week from start of treatment (represents time-point zero) to time of killing (day 56).
Cell death is a well known and desirable phenomenon in the anti-cancer therapy. However, side-effects of the treatment in other tissues and cells is not uncommon. To further investigate the underlying mechanism(s) to the observed growth impairment in vivo we studied apoptosis (by the TUNEL method). Apoptosis was quantified in paraffin embedded growth plate sections of CT (bortezomib) and vehicle treated C57B and NMRI mice sacrificed on day 13 of the study (48 hrs post treatment).

[5] = system: chondrocytes of fetal rat metatarsal bones; assay: TUNEL apoptosis in growth plate sections of cultured rat metatarsal bones; type: cell-based; details: bortezomib 1-1000 nM, 12-day culture, p<0.001 vs control
Method: as §1
CT (bortezomib) is a cytotoxic drug known to cause critical alterations in cells/tissues and disturb the cellular homeostasis. […] Apoptosis was analyzed in whole growth plate sections of 12-day cultured rat metatarsal bones (perichondrium excluded) by applying the TUNEL technique to detect DNA fragmentation.

[6] = system: human growth plate cartilage; type: cell-based; details: both, 24 h, 1000 nM
Method: Biopsies from the proximal tibia and distal femur growth plates were collected in 5 pubertal children (3 boys and 2 girls) undergoing epiphyseal surgery for different medical conditions (4 patients with constitutional tall stature and 1 patient with leg length discrepancy). Biopsies were cut into thin slices under microscope and cultured for 24 hrs in the presence of 1000 nM CT (bortezomib). After fixation and sectioning, growth plates were analyzed using the TUNEL assay to determine the levels of chondrocyte apoptosis. […] CT (bortezomib) caused a significant increase in apoptosis (22.2±4.4% TUNEL positive cells vs. 6.3±1.8% in control; **p≦0.01, n=5 patients), which was mainly observed in stem-like and early proliferative chondrocytes. Our confirmation that human growth plate cartilage is also highly sensitive to bortezomib-induced cytotoxicity is of considerable clinical importance.

C57B and NMRI mice = assay: Bone length (X-ray) and body weight in normal C57B and NMRI mice; type: in vivo; details: for bone length (femur, X-ray): bortezomib 1 mg/kg i.p., 1 cycle
Method: as §2
FIG. 5 illustrates a schematic representation of the experimental design for the in vivo studies in C57B and NMRI mice. Both strains of mice were housed one per cage with water ad libitum. At start of treatment, mice were randomized into two groups based on their body weight and were weight-matched into pairs to either receive 1 cycle of intraperitoneal (i.p.) injected CT (bortezomib, 1 mg/kg) or vehicle at the indicated time-points; day 1, 4, 8 and 11. Each vehicle treated mouse was pair-fed to a corresponding weight-matched CT (bortezomib) treated mouse. Mice were killed (t) on day 13 (48 hrs post treatment) or on day 56 (45 days post treatment). X-ray analyses where performed approximately every second week from start of treatment (represents time-point zero) to time of killing (day 13 or 56). Bone lengths (mm) of femur were analyzed in vehicle- and CT (bortezomib) treated animals. Each group included 7-10 mice.
Body weight was measured in both strains of mice every day until day 20 after start of treatment, and once per week thereafter. […] The vertical hatched line in FIGS. 6A and B indicates the last injection on day 11. In light of the growth inhibiting effect on metatarsal bones in vitro and the association of many other cytotoxic drugs, the effect on bone growth was investigated in vivo. Normal 5-week old male C57B and NMRI mice were weigh-matched into pairs to either receive 1 cycle intra peritoneal (i.p) injections of CT (bortezomib) at a clinical relevant dose (1mg/kg of body weight; 2 injections/week, 2 weeks treatment) or saline (vehicle). One group were killed 48 hrs after last injection (day 13) to study the direct effects on bone growth and the growth plate chondrocytes. The second group of animals were followed another 45 days without any treatment and then killed (day 56, 45 days post treatment) to look at the long-term effect and if there was any catch-up growth. […]

Molecule: CC(C)C[C@H](NC(=O)[C@H](CC(C)C)NC(=O)[C@H](CC(C)C)NC(=O)OCc1ccccc1)B(O)O [MG262]
- effect on growth plate and growth (growth plate): permanent growth retardation and chondrocyte cell death

Molecule: COc1cccc2c1C(=O)c1c(O)c3c(c(O)c1C2=O)C[C@@](O)(C(=O)CO)C[C@@H]3O[C@H]1C[C@H](N)[C@H](O)[C@H](C)O1 [doxorubicin]
- reduction in tibia length (male Wistar rats): 18%

Molecule: C[C@@H]1C[C@H]2[C@@H]3CCC4=CC(=O)C=C[C@]4(C)[C@@]3(F)[C@@H](O)C[C@]2(C)[C@@]1(O)C(=O)CO [Dexa, Dexamethasone, reference compound]
- longitudinal bone growth ([1]; Dexa 1 μM alone): induced growth retardation
- growth (tibia length) (FVB mice; 1 week): significantly induced growth retardation
- growth (nose to anus length) (FVB mice; 4 weeks, vs vehicle): significantly growth retarded
- size of resting and proliferating chondrocyte zone (R+P) (growth plate cartilage): appears smaller

Molecule: CN(Cc1cnc2nc(N)nc(N)c2n1)c1ccc(C(=O)N[C@@H](CCC(=O)O)C(=O)O)cc1 [methotrexate]
- reduction in tibia length (male Wistar rats): 5%

Molecule: CC(C)C[C@H](NC(=O)[C@H](Cc1ccccc1)NC(=O)c1cnccn1)B(O)O [CT (bortezomib), bortezomib]
- expression of pro-apoptotic proteins AIF and BAX [2]: induce up-regulation and activation
- longitudinal bone growth ([1]; bortezomib 50 nM or higher, from day 2 throughout 12 days, p<0.001 vs control): Significant growth suppression
- longitudinal bone growth ([1]; bortezomib 1000 nM for only 24 hrs, then control medium up to 12 days): permanent growth arrest
- longitudinal bone growth ([1]; bortezomib, all concentrations tested (25-100 nM)): completley abolished growth
- tumor doubling time [3]: significant reduction in tumor doubling time
- chondrocyte apoptosis (TUNEL) [4]: significant induction of chondrocyte apoptosis
- effect on growth plate and growth (growth plate): permanent growth retardation and chondrocyte cell death
- chondrocyte apoptosis (TUNEL) [5]: significant dose-dependent increase in chondrocyte apoptosis
- TUNEL positive cells [6]: 22.2±4.4%
- body weight (C57B and NMRI mice; C57BL mice, bortezomib 1 mg/kg i.p. days 1, 4, 8, 11, vs vehicle): no difference in body weight
- body weight (C57B and NMRI mice; NMRI mice, bortezomib 1 mg/kg i.p. days 1, 4, 8, 11, day 36 until day 56, vs vehicle): significant difference in body weight
- bone length (femur, X-ray) (C57B and NMRI mice; after 45 day follow-up (day 56), p<0.001): still significantly shorter
- bone length (femur, X-ray) (C57B and NMRI mice; day 13, both strains, p<0.001 vs vehicle): significantly shorter

Molecule: Colivelin
- protection against Dexa-induced bone growth retardation ([1]; colivelin 100 μM combined with Dexa 1 μM): some protective effect against Dexa-induced bone growth retardation
- longitudinal growth ([1]; colivelin alone, cultured for 12 days): some stimulatory effect on longitudinal growth

— patent US20130053323A1, “METHODS AND USE RELATED TO HUMANIN AND HUMANIN-LIKE PEPTIDES” (priority 2009, published 2013)
